Results as given in patent US20150320836A1, “CRYOPRESERVATION OF CELLS INSIDE A MACRO-ENCAPSULATION DEVICE” (The Regents of the University of California, priority 2012, published 2015).
Where two headings read alike, the source gives them in different places.

Legend:
[1] = test system: islet like cell clusters (ICCs) of human Ins-G cells; assay type: cell-based; conditions: for viable yield: human
Procedure: While the level of DMSO will gradually decrease during elution, the extreme point was tested and the same high level of DMSO was maintained for the longevity of the entire exposure.
Increase of temperature of elution will shorten the time of elution but DMSO might cause increased toxicity at increased temperature. Driven by this dilemma, extreme treatments of post-thawed clusters were checked starting with immediate washing of DMSO, maintaining them for 20 min on 4° C. before washing, at 25° C. for 10 and 20 min and at +37° C. at 10 and 20 min (Experiment 3, FIG. 3A). […] There was one exception however, the cells incubated at room temperature for 20 minutes performed slightly poorer than the other treatments. […] This phenomenon was observed over a large number of experiments (N=6), but its basis is unclear. […] Further experiments would be needed to determine with certainty that RT is actually more detrimental than +37° C. or ice. The surviving cells retain insulin expressing capacity for all treatments (FIG. 3B).
Ultimately, the ability to freeze cell clusters inside an encapsulation device may require that the cells survive the time required to remove CPA upon thawing. Normally, when (unencapsulated) cells are thawed, CPA is removed quickly, either by centrifugation or by extensive dilution into culture media. However, for a cell-filled device, CPA removal will be accomplished via diffusion of CPA out of device into a large volume of wash media, until equilibration is reached. We estimated that approximately 20 minutes will be required to reach equilibrium, during which time cells are exposed to CPA. We therefore first examined the effects of post-thaw exposure to CPA in unencapsulated ICCs. Because equilibrium is also temperature dependent, we exposed thawed ICCs to CPA at 25° C. or 37° C. As we can see from FIG. 3A, sample 1, a control which was not exposed to CPA or frozen, reattachment of ICCs to tissue culture plates is 48%, lower than reattachment of dissociated cells (FIG. 1, sample 1). […]

[2] = test system: islet like cell clusters (ICCs) of human Ins-G cells; test: ICCs loaded or frozen in TheraCyte encapsulation device; assay type: cell-based; conditions: frozen in TheraCyte device in 10% DMSO freezing medium
Procedure: Observing that the clusters can be exposed to DMSO both before freezing and after thawing when the cells were frozen in cryovials, cells were then frozen in the TheraCyte™ device (FIGS. 4A-C). Cells were exposed to DMSO during loading into the device. The port was then trimmed so that the device could fit a 1.5 mL cryovial which also contained 10-% DMSO freezing medium and froze them. After the vial was thawed, DMSO was eluted by placing the device in gently swirling medium solution (using magnetic stir bar). Without being limited by theory, this treatment may be sufficient to wash out the majority of DMSO before transplantation. Moreover this procedure mimics slow elution if the device is transplanted immediately after thawing, as a low concentration of DMSO is presumed to be non-toxic even for small animals. […] Barely 1/10 of loaded cells survived the whole procedure (including cutting device in pieces and placing into the dish, washing that out in 48 hrs, etc. (Experiment 4, FIG. 5). There can be several explanations for the cell loss, such as following.
We next addressed the effects of freezing ICCs inside the encapsulation device. As a control for freezing, ICCs resuspended in FM were loaded into devices which were sealed and then immediately opened and cells removed. Cell attachment following release from device averaged 64% and of the attached cells, 59% were viable. […]

[3] = test system: hESCs; test: Exposure of dissociated hESCs to cryoprotective agent; assay type: cell-based, human; conditions: 10% DMSO 10 or 30 min, 4° C. or 37° C., no freezing
Procedure: hESCs are cultured as monolayers and are dissociated with Accutase, pelleted, and resuspended with either normal culture media (CM) as a positive control for cell viability or with the Freeze Medium (FM) containing 10% DMSO. Cells are either plated immediately in CM or incubated in FM for up to 30 minutes. Following incubation time, cells are allowed to reattach to tissue culture plates for 24 hours and then assessed for attachment and viability. DMSO concentration, freezing time, and freezing temperature, for example, may be varied to obtain best results for a given culture. […] As a result, the Viable Yield (the product of Attachment and Viability) is also similar among the 4 incubation conditions. Thus, exposure to DMSO without freezing produces a minimal effect on survival of dissociated cells monolayer cultures.

[4] = test system: human Ins-G cells; assay type: cell-based
Procedure: The sensitivity of dissociated human Ins-G cells to DMSO without cryopreservation (CP) was investigated. […] Temperatures ranging from 0° C. to 37° C. were investigated. Regardless, cell viability was practically indistinguishable from control cells not exposed to DMSO (FIG. 1A, column #1).
In prior studies with a macro-encapsulation device, we loaded cells into devices immediately prior to transplantation. Thus, until now we have not exposed encapsulated cells to CPA, yet the ability to freeze preloaded devices would ensure reproducibility between experiments and among users. The process of loading cells into the device requires approximately 20 min; beginning when cells are drawn up into a Hamilton syringe and slowly dispensed into the device, and ending when the syringe has been removed from the device port and the port has been sealed. We hypothesized therefore, that cells must withstand pre-freeze exposure to CPA for 20 minutes in order to be successfully cryopreserved in devices. […]
(§1) Cells cultured as monolayers were dissociated with Accutase, pelleted, and resuspended with either normal culture media (CM) as a positive control for cell viability or with the Freeze Medium (FM) containing 10% DMSO. […] Following incubation time, cells were allowed to reattach to tissue culture plates for 24 hours and then assessed for attachment and viability. […]

[5] = test system: insulin-GFP transgene in human Ins-G ICCs; test: Insulin-GFP expression after freezing ICCs and post-thaw DMSO exposure; assay type: cell-based; conditions: frozen, post-thaw DMSO 20 minutes at 37° C.
Source text: In addition to survival, it is important that ICCs retain insulin gene expression during these manipulations. Human Ins-G cells express endogenous insulin message in response to tamoxifen (which activates the transcription factor […] by promoting translocation from the cytoplasm to the nucleus). The cells were also engineered to express GFP from an insulin transgene. Therefore, GFP expression in response to tamoxifen is a surrogate for insulin expression. We examined GFP expression in control ICCs (not frozen, not exposed to DMSO) as well as in cells frozen and exposed to DMSO for 20 minutes at 37° C. (FIG. 3B).

[6] = test system: human Ins-G cells; test: Freezing dissociated Ins-G cells after pre-freeze incubation with DMSO; assay type: cell-based
Procedure: The effects of preincubation with DMSO on freeze/thaw viability were investigated. Freezing dissociated cells pre-exposed to Freeze Media containing 10% DMSO (FIG. 1B) also had no effect on cryosurvival, which per se was exceptionally good (up to 77-79% to control). In order to verify requirement for cryoprotective agents (CPA) in freezing, a sample was frozen in culture media (no DMSO). As expected, survival was very poor (11% in comparison to the positive control). […] Without being bound to theory, a possible explanation is that cell mortality resulted from slow (suboptimal) freezing injury, when cells are frozen at the rate substantially slower than the equilibrium “Mazur's rate” when the cells are just in equilibrium with freezing outer milieu. The suboptimal rates in the inverted U curve usually contributed to the effects of highly concentrated solutes rather than immediate cell destruction and fast necrosis associated with the supra-optimal (fast freezing, according to the 2-factor hypothesis developed by Mazur (Mazur et al. (1972) Experimental Cell Res., 71:345-349; Mazur et al. (2008) Biol Reprod, 78:2-12). The cell membrane rupture and other colligative osmotic damage due to excessive shrinkage and swelling usually manifest quickly as the loss of selective permeability properties so the cells become permeable to large particle dyes such Trypan Blue, soon after the treatment. The osmotic damage usually decreases with the temperature and step-wise addition and dilution (which, in fact, exposes the cells to CPA longer than an abrupt one-step addition or dilution). In contrast, a long exposure to a CPA or/and to very concentrated solutions of the cryoprotectant can manifest later in the form of, e.g., death due to specific chemical toxicity, particularly on membrane and epigenetic level as it may affect protein folding and membrane lipid bilayers, as it is shown for some types of cells (see, for example (Katkov II et al. (2006) Cryobiology, 53:194-205) for references. In contrast to osmotic damage, chemical toxicity usually exacerbates at longer exposure at higher temperature, and the prevalence of one mode vs. another can be easily differentiate by treating cells with higher temperatures and/or for longer exposure to the CPA (Katkov II (2011) Cryobiology, 62:242-4; Katkov II et al. (1998) Cryobiology, 37:325-38; Katkov II et al. (2007) Cryo Letters, 28:409-27).
as §1

[7] = test system: islet like cell clusters (ICCs) of human Ins-G cells; test: Freezing ICCs: pre-freeze DMSO exposure and centrifugation; assay type: cell-based
Procedure: To more closely mimic the morphological structure of pancreatic islets, cells cultured as 3-dimensional ICCs were investigated. The first technical question was how to harvest clusters, whether by gentle (200 g×5 min) centrifugation or by settling by gravitational force (1 g). Here prefreeze exposure of the clusters to 10% DMSO at room temperature and +37° C. before freezing was investigated.
Two negative controls were employed. First (sample 1 on FIG. 2) were non-frozen clusters but the cells were exposed to 10% of DMSO for 20 min at +37° C. and centrifuged (200 g×5 min) The second control (Column #2) were cells that were not exposed top DMSO and frozen w/o it, with the same other procedures that in the first control. […] Apparently, some clusters were lost because they had not settled to the bottom of the tube either due to sub-optimal time or length of column 15-mL tube (Katkov II et al. (1999) Cell Biochem Biophys, 31:231-45). Cell clusters, it was observed, are more sensitive than dissociated cells from monolayer cultures even before and freezing (viability after thawing for the re-attached cells was in range of 61-72%, which was substantially lower than in monolayers (Experiment 2, FIG. 2). Thus, natural sedimentation was used with an increased time and decreased column length by using 50-mL conical tubes instead for the next experiments. […]

[8] = pre-freeze 10% DMSO 10 or 30 min, +4° C. or +37° C.

Structure (SMILES): C[S+](C)[O-] [DMSO, dimethyl sulfoxide]
- tolerance of post-thaw exposure to DMSO [1]: well tolerated
- viable yield [1]: 35-38%
- viable yield ([1]; 20 min): 21%
- fraction of loaded cells surviving the whole procedure [2]: 1/10
- survival [3]: ≥ 80%
- tolerance of exposure to 10% DMSO [4]: well tolerated
- Viable Yield (product of Attachment and Viability) ([4]; human, 10 %): 63-73%
- GFP expression versus control ICCs [5]: no significant difference
- cryosurvival relative to control ([6]; frozen in Freeze Media with 10% DMSO after pre-exposure): 77-79%
- Attachment efficiency after freezing [6, 8]: 73-77%
- Viable Yield after freezing [6, 8]: 63-73%
- viability of re-attached cells after freezing [6, 8]: 86-92%
- viability after thawing of re-attached cells ([7]; ICCs frozen after pre-freeze 10% DMSO exposure): 61-72%
- viable yield ([7]; clusters exposed to 10% DMSO at +37° C. for 20 min, centrifuged 200 g×5 min): 31%
